Patent US20240229116A9, “METHOD FOR DETECTING MICRORNA IN BIOLOGICAL SAMPLE, COMPOSITION OF HYDROCHLORIDE OF NEUTRAL AMINO ACID, AND CONTAINER” (Toray Industries, Inc., priority 2021, published 2024)
Where a name gives a salt, the structure may show the parent alone. One block for each compound: values may come before it.

Experiments:
[1] = tested on: microRNAs in serum; assay: Detection of microRNAs from serum preserved after mixing with acid (3D-Gene DNA microarray, total fluorescence intensity); set-up: species or system human
Experimental: The serum which had been mixed with the acid in the step (A) was left to stand and preserved at 23° C. for 48 hours.
A quantity of 27 μL of a 4 M aqueous solution of tris(hydroxymethyl)aminomethane (manufactured by Nacalai Tesque Inc.) was mixed with the serum preserved in the step (B). […]
From the serum which had been mixed with the base in the step (C), microRNAs were collected using an RNA extraction reagent included in a 3D-Gene (registered trademark) RNA extraction reagent from liquid sample kit (manufactured by Toray Industries, Inc.), in accordance with the protocol defined by the company.
The microRNAs collected from the serum in the step (D) were fluorescently labeled, using a 3D-Gene (registered trademark) miRNA Labeling kit (manufactured by Toray Industries, Inc.), and in accordance with the protocol defined by the company. Using a 3D-Gene (registered trademark) Human miRNA Oligo chip (manufactured by Toray Industries, Inc.) containing probes having sequences complementary to 2,565 types of microRNAs, as a DNA microarray chip, hybridization was carried out in accordance with the protocol defined by the company. The DNA microarray chip was scanned using a 3D-Gene (registered trademark) scanner (manufactured by Toray Industries, Inc.), to obtain an image. The fluorescence intensities were digitized using a 3D-Gene (registered trademark) Extraction (manufactured by Toray Industries, Inc.), and the total value of the fluorescence intensities of the microRNAs which had been detected exceeding the detection limit was calculated, and the calculated value was defined as the detection level of the microRNAs.

[2] = pH adjustment of serum (dissolved state in serum and pH of serum); format: physicochemical, human; conditions: 1 mL serum added to 0.1 g composition (65 mg solid of glycine hydrochloride), 23° C. one minute
Experimental: From the upper layer of the serum in the tube, 0.1 mL of the serum was collected, and the measurement of the pH was performed using a handy pH meter (manufactured by HORIBA, Ltd.).

[3] = Comparative Example 3: subject X serum, no acid (pH 7.5), 23° C. 48 hours, Tris base to pH 7.7
[4] = Example 13: serum of healthy subject Y, pH 3.1 after acid, 23° C. 48 hours, Tris base to pH 7.8
[5] = Example 14: subject Y serum, pH 3.1 after acid, 23° C. 48 hours, Tris base to pH 6.0
[6] = Example 15: subject Y serum, pH 3.1 after acid, 23° C. 48 hours, Tris base to pH 7.0
[7] = Example 16: subject Y serum, pH 3.1 after acid, 23° C. 48 hours, no base mixed (pH 3.1)

pH of serum ([2]; upper layer, pH 7.7 before the addition): 4.5
dissolved state in serum ([2]; visual observation): did not quickly dissolve in the serum
Compound: NCC(=O)O [Glycine hydrochloride, glycine hydrochloride]
Total value of fluorescence intensities ([1]; Example 1: serum of healthy subject X, pH 2.8 after mixing acid, preserved 23° C. 48 hours, Tris base to pH 7.5): 9.81 × 10^5
Total value of fluorescence intensities ([1]; Example 2: subject X serum, pH 2.8 after acid, 23° C. 48 hours, Tris base to pH 7.7): 9.51 × 10^5
Total value of fluorescence intensities ([1]; Example 3: subject X serum, pH 2.8 after acid, 23° C. 48 hours, Tris base to pH 8.0): 1.10 × 10^6
Total value of fluorescence intensities ([1]; Example 4: subject X serum, pH 2.8 after acid, 23° C. 48 hours, Tris base to pH 8.5): 8.99 × 10^5
Total value of fluorescence intensities ([1]; Example 5: subject X serum, pH 2.8 after acid, 23° C. 48 hours, Tris base to pH 9.0): 7.89 × 10^5
Total value of fluorescence intensities ([1]; Example 6: subject X serum, pH 2.8 after acid, 23° C. 48 hours, Tris base to pH 6.0): 7.19 × 10^5
Total value of fluorescence intensities ([1]; Example 7: subject X serum, pH 2.8 after acid, 23° C. 48 hours, Tris base to pH 7.0): 7.23 × 10^5
Total value of fluorescence intensities ([1]; Example 8: subject X serum, pH 2.8 after acid, 23° C. 48 hours, no base mixed (pH 2.8)): 6.25 × 10^5
Total value of fluorescence intensities ([1]; Example 9: subject X serum, pH 4.0 after acid, 23° C. 48 hours, Tris base to pH 7.7): 1.05 × 10^6
Total value of fluorescence intensities ([1]; Example 10: subject X serum, pH 2.8 after acid, 23° C. 2 hours, Tris base to pH 7.7): 8.70 × 10^5
Total value of fluorescence intensities ([1]; Example 11: subject X serum, pH 2.8 after acid, 23° C. 6 hours, Tris base to pH 7.7): 9.07 × 10^5
Total value of fluorescence intensities ([1]; Example 12: subject X serum, pH 2.8 after acid, 23° C. 96 hours, Tris base to pH 7.7): 1.00 × 10^6

Compound: tris(hydroxymethyl)aminomethane
Fluorescence intensities relative to before preservation [1, 3]: 16.3%
Total value of fluorescence intensities [1, 3]: 1.39 × 10^5

Compound: O=C(O)CC(O)(CC(=O)O)C(=O)O [Citric acid, citric acid]
Fluorescence intensities relative to before preservation [1, 4]: 104.5%
Total value of fluorescence intensities [1, 4]: 1.10 × 10^6
Fluorescence intensities relative to before preservation ([1]; Example 13: serum of healthy subject Y, pH 3.1 after acid, 23° C. 48 hours, Tris base to pH 7.8, listed as citric acid): ≥ 100%
Fluorescence intensities relative to before preservation [1, 5]: 85.0%
Total value of fluorescence intensities [1, 5]: 8.95 × 10^5
Fluorescence intensities relative to before preservation ([1]; Example 14: subject Y serum, pH 3.1 after acid, 23° C. 48 hours, Tris base to pH 6.0, listed as citric acid): ≥ 70%
Fluorescence intensities relative to before preservation [1, 6]: 85.5%
Total value of fluorescence intensities [1, 6]: 9.00 × 10^5
Fluorescence intensities relative to before preservation ([1]; Example 15: subject Y serum, pH 3.1 after acid, 23° C. 48 hours, Tris base to pH 7.0, listed as citric acid): ≥ 70%
Fluorescence intensities relative to before preservation [1, 7]: 75.2%
Total value of fluorescence intensities [1, 7]: 7.92 × 10^5
Fluorescence intensities relative to before preservation ([1]; Example 16: subject Y serum, pH 3.1 after acid, 23° C. 48 hours, no base mixed (pH 3.1), listed as citric acid): ≥ 70%
